The test system of one test is facial nerve. Description: Rat facial nerve compression model. Type of test: in vivo, Long-Evans rats. The settings on record: p.o. about 20 mg/kg twice a day for 15 days after surgery; compared to vehicle and internal control; FIG. 1. How it is done: In this model, compressing the facial nerve causes paralysis of the whisker muscle on that side of the face. The untreated facial nerve on the other side functions as an internal control. […] The whisker movement recovery rate on the paralyzed side compared to the vehicle and internal control is shown in this FIGURE.
Long-Evans rats are anesthetized under ketamine (60 mg/kg)/xylazine (6 mg/kg). The facial nerve is exposed and mechanically compressed with forceps near the stylomastoid foramen unilaterally with the opposite, non-lesioned side serving as an internal control. […] Rats received test compound p.o. at about 20 mg/kg twice a day for 15 days after the surgery. Control rats received vehicle only. Three to eight rats are tested in each group. Restoration of whisker movement after the treatment with compounds of the present invention is recorded at different post-operative time points daily, up to two weeks, and is shown in FIG. 1.

A further test relates to DRG. Description: Dorsal root ganglion (DRG) culture, neurite outgrowth. Particulars: test compound 50-250 nM; neurite outgrowth examined on days 1-5; positive (+) if compound induced neurites of ≧1 diameter of the DRG. Set-up: key: + = Positive results for each experiment; − = Negative results for each experiment; NA = Not active. In kind it is cell-based, CD rats. The method, then: DRG are dissected from newborn or 1-day-old CD rats and placed into PBS on ice. After rinsing twice with sterile plating medium, DRG are transferred to empty wells of a 6-well plate coated with polyomithine/laminin (Becton Dickinson Labware) using #7 curved forceps. Three ml/well of plating medium are then added very gently, so as not to disturb the DRG. Plating medium is Leibovitz's L-15 medium (Gibco), plus 0.6% glucose, 33 mM KCl, 10% FCS, 10 mM Hepes and penicillin/streptomycin/glutamine. After overnight incubation at about 37° C. in 5% CO2, this medium is replaced with 3 mL/well of assay medium [Leibovitz's L-15 medium plus 0.6% glucose, 1% FCS, 1% N-2 supplement (Gibco), […], 10 mM Hepes, and penicillin/streptomycin/glutamine] containing either vehicle (DMSO, 1/200,000), positive control (2-4 ng/mL NGF) or test compound (50-250 nM). All media are prepared fresh daily. DRG are microscopically examined for neurite outgrowth on days 1-5.

Test [1] concerns Human M17 Neuroblastoma Cells. Description: Neurite outgrowth assay (MAP-2 immunofluorescence) in M17 neuroblastoma cells. Type of test: cell-based. Particulars: MAP-2 fluorescence, active if greater than mean DMSO-treated control on same plate, NA = Not active. How it is done:
M17 human neuroblastoma cells are cultured in 1:1 ratio of EMEM and Ham's F12 with 1×NEAA and 10% FBS. The culture media contains 1×PSN antibiotic and is exchanged every other day, and the cells are passed in log phase near confluence.
(§1) Cultures are incubated with normal horse serum (1:50; Vector Labs) for about 20 min, rinsed and then incubated with primary antibody, microtubule associated-protein 2 (anti-mouse MAP-2; 1:1000; Chemicon) for about 2 h at about RT. Following primary antibody, cultures are rinsed and incubated with fluorescein anti-mouse IgG (rat absorbed; 1:50; Vector Labs) for about 1 h. After fluorescein incubation, the cultures are rinsed and read in PBS on a fluorescent plate reader (excitation: 485 nm; emission: 530 nm). A compound is regarded as active if the neurite outgrowth response is greater than the mean DMSO-treated control response on the same plate. The response to test compound is reported as percent of DMSO-treated control (absent the percentage sign). The signal-to-noise separation is consistent: the fluorescence from DMSO control wells is at least two-fold greater than blank wells.

Test [2] relates to Primary Rat Hippocampal Cells. Description: Neurite outgrowth assay (MAP-2 immunofluorescence) in primary rat hippocampal cells. In kind it is cell-based. The settings on record: MAP-2 fluorescence, active if greater than mean DMSO-treated control on same plate, NA = Not active. The method, then: Hippocampal cells are dissected from the brains of embryonic day 18 rat pups and dissociated with trypsin (1 mg/mL) and trituration. Cells are seeded at 30,000 cells/well in 96-well plates filled with 100 μL MEM and 10%FBS. At 7 days in culture, cells are fixed with 4% paraformaldehyde and immunofluorescence is performed.
as §1

The subject of the next test is sensory ganglia. Particulars: cultures of sensory ganglia; cited from earlier work.
In another test the test system is PC12 cells. The settings on record: cultures of PC12 cells; cited from earlier work.

These results are taken from patent publication US6544976B1, “Neurotrophic 2-azetidinecarboxylic acid derivatives, and related compositions and methods” (Ortho-McNeil Pharmaceutical, Inc., priority 1999, dated 2003).

Take `CCC(C)(C)C(=O)C(=O)N1CC[C@H]1C(=O)OCCCc1cccnc1` [Compound 1, (2S)-[3-(3-Pyridyl)1-propyl]-1-(1,2-dioxo-3,3-dimethylpentyl)azetidine-2-carboxylate]: in the test with facial nerve, the “Restoration of whisker movement on the paralyzed side” value is “restored more rapidly”. In addition, the DRG result in the test on DRG is reported as “+”. Further, the “M17 Cell Response” value in test [1] is reported as 140% of DMSO-treated control.
Turning to `CCC(C)(C)C(=O)C(=O)N1CC[C@H]1C(=O)OC(C)(C)CCc1cccnc1` [Compound 2, (2S)-[3-(3-Pyridyl)-1,1-dimethyl-1-propyl]-1-(1,2-dioxo-3,3-dimethylpentyl)azetidine-2-dicarboxylate], the DRG entry in the test on DRG is listed as “+”. Besides, the “M17 Cell Response” value in test [1] was 134% of DMSO-treated control.
`CCC(C)(C)C(=O)C(=O)N1CC[C@H]1C(=O)OCCC(c1ccccc1)c1ccccc1` [Compound 3, (2S)-(3,3-Diphenyl-1-propyl)1-(1,2-dioxo-3,3-dimethylpentyl) azetidine-2-carboxylate]: the “Rat Hippocampal Cell Response” value in test [2] was 119% of DMSO-treated control. Further, the “M17 Cell Response” value in test [1] was 110% of DMSO-treated control.
For `CCC(C)(C)C(=O)C(=O)N1CC[C@H]1C(=O)OCCCCc1ccc(OC)cc1` [Compound 4, (2S)-[4-(4-Methoxyphenyl)-1-butyl]-1-(1,2-dioxo-3,3-dimethylpentyl)azetidine-2-carboxylate], the “M17 Cell Response” value in test [1] is 107% of DMSO-treated control.
Take `CC(C)(C)NC(=O)N1CC[C@H]1C(=O)OCCCc1cccnc1` [Compound 7]: the “Rat Hippocampal Cell Response” value in test [2] is 123% of DMSO-treated control.
As to `O=C(C(=O)N1CC[C@H]1C(=O)OCCCc1cccnc1)c1ccccc1` [Compound 9], the “Rat Hippocampal Cell Response” value in test [2] is reported as 112% of DMSO-treated control.
The same measure, in the same setting: the figure for `CC(C)(C)C(=O)C(=O)N1CC[C@H]1C(=O)OCCCc1cccnc1` [Compound 10, (2S)-[3-(3-Pyridyl)-1-propyl]-1-(1,2-dioxo-3,3-dimethylbutyl)azetidine-2-carboxylate] is 123% of DMSO-treated control.
For the compound `O=C(C(=O)N1CC[C@H]1C(=O)OCCCc1cccnc1)c1cccs1` [Compound 11, (2S)-[3-(3-Pyridyl)-1-propyl]-1-[1,2-dioxo-2-(thien-2-yl)ethyl]azetidine-2-carboxylate], the “Rat Hippocampal Cell Response” value in test [2] is listed as 114% of DMSO-treated control.
The same measure, in the same setting: the figure for `Cc1cc(C(=O)N2CC[C@H]2C(=O)OCCCc2cccnc2)nn1C` [Compound 13, (2S)-[3-(3-Pyridyl)-1-propyl]-1-[(1,5-dimethylpyrazol-3-yl)carbonyl]azetidine-2-carboxylate] is 123% of DMSO-treated control; for `CCC(C)(C)C(=O)C(=O)N1CC[C@H]1c1nnnn1CCCc1cccnc1` [Compound 14, (2S)-1-(1,2-Dioxo-3,3-dimethylpentyl)2-(1-[3-(3-pyridyl)-1-propyl]-1H-tetrazol-5-yl)azetidine] it is 118% of DMSO-treated control; for `COc1ccc(CCCCOC(=O)[C@@H]2C[C@@H](C(=O)OCCCCc3ccc(OC)cc3)N2C(=O)C(=O)c2ccccc2)cc1` [Compound 15, (2S,4S)-Bis-[4-(4-methoxyphenyl)-1-butyl)-1-(1,2-dioxo-2-phenylethyl)azetidine-2,4-dicarboxylate] it is 126% of DMSO-treated control.
Turning to `CCC(C)(C)C(=O)C(=O)N1[C@@H](C(=O)OCCCCc2ccc(OC)cc2)C[C@H]1C(=O)OCCCCc1ccc(OC)cc1` [Compound 16, (2S,4R)-Bis-[4-(4-methoxyphenyl)-1-butyl]-1-(1,2-dioxo-3,3-dimethylpentyl)azetidine-2,4-dicarboxylate], the “M17 Cell Response” value in test [1] is reported as 114% of DMSO-treated control.
Regarding `CCC(C)(C)C(=O)C(=O)N1[C@@H](C(=O)OCCC(c2ccccc2)c2ccccc2)C[C@H]1C(=O)OCCC(c1ccccc1)c1ccccc1` [Compound 17, (2S,4R)-Bis-(3,3-diphenyl-1-propyl)-1-(1,2-dioxo-3,3-dimethylpentyl)azetidine-2,4-dicarboxylate], the “M17 Cell Response” value in test [1] was 106% of DMSO-treated control.
With `CCC(C)(C)C(=O)C(=O)N1C(C(=O)OCCCc2cccnc2)C[C@H]1C(=O)OCCCc1cccnc1` (stereo partly drawn) [Compound 18, (2S,4R)-Bis-[3-(3-pyridyl)-1-propyl]-1-(1,2-dioxo-3,3-dimethylpentyl)azetidine-2,4-dicarboxylate], the “Rat Hippocampal Cell Response” value in test [2] is 137% of DMSO-treated control. For the same compound, the “M17 Cell Response” value in test [1] is 106% of DMSO-treated control.
As for `CCC(C)(C)C(=O)C(=O)N1[C@@H](C(=O)OCCCCc2ccc(OC)cc2)C[C@@H]1C(=O)OCCCCc1ccc(OC)cc1` [Compound 19, (2R,4R)-Bis-[4-(4-methoxyphenyl)-1-butyl]-1-(1,2-dioxo-3,3-dimethylpentyl)azetidine-2,4-dicarboxylate], in test [1], the “M17 Cell Response” value is 111% of DMSO-treated control.
The same measure, in the same setting: the figure for `CCC(C)(C)C(=O)C(=O)N1C(C(=O)OCCCc2cccnc2)C[C@@H]1C(=O)OCCCc1cccnc1` (stereo partly drawn) [Compound 20, (2R,4R)-Bis-[3-(3-pyridyl)-1-propyl]-1-(1,2-dioxo-3,3-dimethylpentyl)azetidine-2,4-dicarboxylate] is 103% of DMSO-treated control; for `CCC(C)(C)C(=O)C(=O)N1[C@H](C(=O)OCCCCc2ccc(OC)cc2)C[C@H]1C(=O)OCCCCc1ccc(OC)cc1` [Compound 21, (2S,4S)-Bis-[4-(4-methoxyphenyl)-1-butyl]-1-(1,2-dioxo-3,3-dimethylpentyl)azetidine-2,4-dicarboxylate] it is 103% of DMSO-treated control.
As for `C=CC[C@@H]1/C=C(\C)C[C@H](C)C[C@H](OC)[C@H]2O[C@@](O)(C(=O)C(=O)N3CCCC[C@H]3C(=O)O[C@H](/C(C)=C/[C@@H]3CC[C@@H](O)[C@H](OC)C3)[C@H](C)[C@@H](O)CC1=O)[C@H](C)C[C@@H]2OC` [FK506], the neurotrophic activity entry in the test on sensory ganglia and with PC12 cells was “shows neurotrophic activity” in each case.
